Structures can show the parent of a compound that is named as a salt. Where only a bound is given, the exact number is not on record here.

Consider 5 compounds from patent US8263620B2, “Oxadiazole derivatives active on sphingosine-1-phosphate (SIP)” (Glaxo Group Limited, priority 2007, dated 2012).

The target of series [1] is T1, human S1P3 receptor (Homo sapiens, UniProt Q99500).
T1 construct: expressed in transfected cells; membranes
The series can be described thus: S1P3 GTPγS assay. Particulars: [35S]-GTPγS SPA, S1P3 RBL-2H3 membranes, agonist. Type of series: biochemical. How it is done: For membrane preparations all steps were performed at 4° C. Rat hepatoma cells stably expressing the human S1P1 receptor or Rat Basophilic Leukaemia cells (RBL) stably expressing human S1P3 receptor were grown to 80% confluency before being harvested into 10 ml Phospho-Buffered Saline (PBS) and centrifuged at 1200 rpm for 5 minutes. After removal of the supernatant, the pellet was re-suspended and cells were homogenised within a glass Waring blender for 2 bursts of 15 secs in 200 mls of buffer (50 mM HEPES, 1 mM leupeptin, 25 μg/ml bacitracin, 1 mM EDTA, 1 mM PMSF, 2 μM pepstatin A). The blender was plunged into ice for 5 mins after the first burst and 10-40 mins after the final burst to allow foam to dissipate. The material was then spun at 500 g for 20 mins and the supernatant spun for 36 mins at 48,000 g. The pellet was resuspended in the same buffer as above but without PMSF and pepstatin A. The material was then forced through a 0.6 mm needle, made up to the required volume, (usually ×4 the volume of the original cell pellet), aliquoted and stored frozen at −80° C.
After 30 minutes pre-coupling on ice the bead and membrane suspension was dispensed into a white Greiner polypropylene LV384-well plate (5 μl/well), containing 0.1 μl of the compound. 5 μl/well [^35S]-GTPγS (0.5 nM final radioligand conc) made up in assay buffer was then added to agonist plates. The final assay cocktail (10.1 μl) was centrifuged at 1000 rpm for 5 minutes then read immediately on a Viewlux reader.
All test compounds were dissolved in DMSO at a concentration of 10 mM and were prepared in 100% DMSO using a 1 in 4 dilution step to provide 11 point dose response curves. The dilutions were transferred to the assay plates ensuring that the DMSO concentration was constant across the plate for all assays.
All data was normalized to the mean of 16 high and 16 low control wells on each plate. A four parameter curve fit was then applied.
S1P3 expressing RBL membranes (1.5 μg/well) were homogenised by passing through a 23 G needle. […] GDP 10 μM FAC and saponin 90 μg/ml FAC were also added
After 30 minutes precoupling on ice, the bead and membrane suspension was dispensed into white Greiner polypropylene LV 384-well plates (5 μl/well), containing 0.1 μl of compound. 5 μl/well [^35S]-GTPγS (0.5 nM for S1P1 or 0.3 nM for S1P3 final radioligand concentration) made in assay buffer was then added to the plates. The final assay cocktail (10.1 μl) was then sealed, spun on a centrifuge, then read immediately on a Viewlux instrument.
On the technique in general: Binding of GTPγS marks nucleotide exchange on a G protein.

Series [2] concerns circulating lymphocytes. Particulars: animals and man; cited from earlier work.
The conditions of series [3]: clinical studies, first 24 hours of treatment; cited from earlier work.

T1 sequence (Q99500 whole entry): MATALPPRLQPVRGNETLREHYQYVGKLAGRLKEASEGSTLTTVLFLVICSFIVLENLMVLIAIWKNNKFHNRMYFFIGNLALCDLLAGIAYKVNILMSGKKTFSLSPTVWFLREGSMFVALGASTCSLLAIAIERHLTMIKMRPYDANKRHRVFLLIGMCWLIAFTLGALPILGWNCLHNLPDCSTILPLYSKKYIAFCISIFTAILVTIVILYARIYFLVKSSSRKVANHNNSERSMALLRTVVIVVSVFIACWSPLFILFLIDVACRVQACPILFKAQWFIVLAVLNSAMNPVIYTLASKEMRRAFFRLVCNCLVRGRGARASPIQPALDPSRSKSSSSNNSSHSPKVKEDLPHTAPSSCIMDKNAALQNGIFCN

The compound `Cc1c(-c2noc(-c3ccc(OC(C)C)c(Cl)c3)n2)ccc2c1CCNC2CC(=O)O` (stereo not drawn) [Example 3, [6-(5-{3-Chloro-4-[(1-methylethyl)oxy]phenyl}-1,2,4-oxadiazol-3-yl)-5-methyl-1,2,3,4-tetrahydro-1-isoquinolinyl]acetic acid trifluoroacetate] showed an EC50 in series [1] of over 10 µM.

The compound `Cc1c(-c2noc(-c3ccc(OC(C)C)c(C#N)c3)n2)ccc2c1CCNC2CC(=O)O` (stereo not drawn) [Example 4, [6-(5-{3-Cyano-4-[(1-methylethyl)oxy]phenyl}-1,2,4-oxadiazol-3-yl)-5-methyl-1,2,3,4-tetrahydro-1-isoquinolinyl]acetic acid trifluoroacetate] gave an EC50 in series [1] of over 10 µM.

For the compound `Cc1c(-c2noc(-c3ccc(OC(C)C)c(Cl)c3)n2)ccc2c1CCNC2CCCC(=O)O` (stereo not drawn) [Example 5, 4-[6-(5-{3-Chloro-4-[(1-methylethyl)oxy]phenyl}-1,2,4-oxadiazol-3-yl)-5-methyl-1,2,3,4-tetrahydro-1-isoquinolinyl]butanoic acid trifluoroacetate], in series [1], the concentration giving a half-maximal response (EC50) is over 10 µM.

`Cc1c(-c2noc(-c3ccc(OC(C)C)c(C#N)c3)n2)ccc2c1CCNC2CCCC(=O)O` (stereo not drawn) [Example 6, 4-[6-(5-{3-Cyano-4-[(1-methylethyl)oxy]phenyl}-1,2,4-oxadiazol-3-yl)-5-methyl-1,2,3,4-tetrahydro-1-isoquinolinyl]butanoic acid trifluoroacetate]: the EC50 in series [1] is over 10 µM.

On to `CCCCCCCCc1ccc(CCC(N)(CO)CO)cc1` [FTY720], for which the “effect on circulating lymphocytes” value in series [2] is reported as “reduce circulating lymphocytes”. Also, the bradycardia entry in series [3] was “results in bradycardia in the first 24 hours of treatment”.

Broadly, the EC50 is the concentration at which the effect is half-maximal.
